This note sets out measurements from patent publication US11684594B2, “Antifungal prophylaxis for cornea” (PRESIDENT AND FELLOWS OF HARVARD COLLEGE, priority 2020, dated 2023).

Data set [1] concerns human corneal-limbal epithelial cells (HCLE). It is filed as cell-based. The conditions noted are these: HCLE cells; post-exposure Trypan blue staining. As for the experimental part: In Vitro Toxicity Tests. Trypan Blue assays for toxicity of various antimicrobial agents were conducted using human corneal cells. Telomerase-immortalized human corneal-limbal epithelial cells (HCLE) were thawed at 37° C. and quickly transferred to a sterile T75 cell culture flask. Cells were grown in keratinocyte serum-free medium (KSFM; Gibco™; Thermofisher Scientific; Waltham, Mass.) supplemented with bovine pituitary extract (25 μg/mL), epidermal growth factor (0.2 ng/mL), calcium chloride (0.4 mM CaCl2[…]2H2O; Sigma-Aldrich; St Louis, Mo.), and 1× penicillin/streptomycin, at 37° C. with 5% CO2. Once cells were confluent, they were passaged following trypsinization in 12- or 24-well plates. After incubation with Trypsin-EDTA (0.05%, Gibco™; Thermofisher Scientific; Waltham, Mass.) for 5-10 min at 37° C. with 5% CO2, the reaction was stopped with an equivalent volume of neutralizing medium (Dulbecco's Modified Eagle Medium/Nutrient Mixture F-12, DMEM/F-12, with HEPES and 10% newborn calf serum), centrifuged at 5,000×g for 5 min, and re-suspended in supplemented KSFM. Experiments were performed using cells from passages 31 to 36. Once cells reached confluency, they were gently washed twice with DMEM/F-12 (Gibco™; Thermofisher Scientific; Waltham, Mass.) and incubated with an antimicrobial agent for 1 min (n=2 wells per group). Controls included 1×PBS (diluent) and 1% TX-100 (cell permeabilizer). After exposure to various agents, the cells were washed three times with DMEM/F-12, incubated with 0.2% Trypan Blue for 5 min, and washed again three times with DMEM/F-12. The remaining media was aspirated and replaced with 1×PBS for imaging. Macro-images of the culture plate were taken with a smartphone camera (iPhone 7; Apple Inc.; Cupertino, Calif.), and 10× images were taken with an inverted microscope (Eclipse TS100; Nikon; Tokyo, Japan) attached to a digital camera (SPOT Insight Fire Wire; Diagnostic Instruments Inc.; Sterling Heights, Mich.). 3-6 images/well were obtained in clockwise direction from areas immediately adjacent to the center of the well, and without overlapping areas. Images were quantified in ImageJ Fiji software to determine the amount of cell uptake of Trypan Blue. Macros were created from the Color Threshoulder plugin (G. Landini) to batch process the images after color matching in Photoshop to reference images per treatment group. % Area of Trypan Blue staining per image was calculated as follows: (area of blue/area of all)×100%.

For data set [2], the system named is Candida albicans (ATCC 24433), Fusarium solani (ATCC MYA-3636), and Aspergillus fumigatus (ATCC MYA-3626). As to the kind of experiment: In vitro antifungal testing, statements not resolved by species. It is filed as cell-based. The conditions noted are these: species not resolved; for Antifungal / fungicidal activity in vitro: agents at eye-drop or stated concentration. As for the experimental part: Several commonly used antibiotics were tested in vitro against Candida albicans (ATCC 24433), Fusarium solani (ATCC MYA-3636), and Aspergillus fumigatus (ATCC MYA-3626). Time kill activity and minimum inhibitory concentrations (MIC) were determined. Also the antiseptics benzalkonium chloride (BAK), povidone-iodine (PI), and ionic liquids (ILs) consisting of a 1:1 mixture of choline and undecanoic acid, were tested. Toxicity was assayed in vitro on cultures of human corneal epithelial cells, subjected to Trypan Blue staining. Adhesion and tissue invasion experiments were also carried out, with or without γ-irradiation, and by analysis with fluorescent microscopy.
(§1) In Vitro Time Kill Tests. Microtiter time kill tests were carried out in vitro according to the published CLSI methods (M27-A2).^22

The subject of another data set is C. albicans (ATCC 24433). Briefly: In vitro time kill test, yeast. It is filed as cell-based, Candida albicans. The conditions noted are these: for Reduction in viable colonies: FIG. 1A, full strength. As for the experimental part:
as §1
The inoculum was prepared by adjustment of the optical density at 600 nm (OD600) to 1.0 (corresponding to approximately 1×10^6 CFU/mL), and dilution by 1:10 in the final solution. To confirm the starting inoculum size, yeasts were plated […] and colonies counted after growth for 24 hrs at 37° C. The test solutions were neutralized at each time point by ten-fold dilution in Dey-Engley neutralizing broth (Sigma-Aldrich; St Louis, Mo.), and serially track diluted (PMID: 9343684) on Sabouraud dextrose agar (six serial 1:10 dilutions, 0.01 mL each) in technical triplicate. Colonies were counted and recorded following aerobic incubation for 24 hrs at 37° C.
To investigate the fungicidal activity of various antibiotics and antimicrobials, the reduction in fungal load after short contact times (0-15 min, FIGS. 2-3), to account for the effect of rapid dilution by the tear film, as occurs in patients after topical instillation, was measured.^23 The detection limit for time kill tests was approximately 100 CFU/mL for C. albicans, and 1 CFU/mL for F. solani and A. fumigatus (corresponding to a ≥3 log difference from the starting inoculum). 20-300 cells were considered a reliable counting range per dilution, and values were averaged when more than one dilution in the same plate were within this range.

Where [3] appears, read: FIG. 1C, without BAK, MOX 5 mg/mL, GAT 5 mg/mL, CHL 5 mg/mL, VAN 14 mg/mL, within 120 min.
Setting [4] is: FIG. 1B, tenth dilution, within 120 min.
Where [5] appears, read: full strength (10,000 u/mL PMB, 40 g/mL BAK, 1 mg/mL TMP), within 120 min.

Entries after “also recorded” stand apart in the source; their conditions may differ.

Consider `CCCCCCCCCCCCCC(=O)NCCCN(C)C` [Aldox, myristamidopropyl dimethylamine], for which the “Cytotoxicity / toxicity” value in data set [1] is on record as “high cytotoxicity”. Besides, the “Efficacy/toxicity ratio, overall rank” value in data set [2] (fungicidal activity vs HCLE cytotoxicity) is given as “rank lower than PI”. Moreover, the “Antifungal / fungicidal activity in vitro” value in data set [2] was “rapid and broad fungicidal activity”.

For the compound `O=C(N[C@H](CO)[C@H](O)c1ccc([N+](=O)[O-])cc1)C(Cl)Cl` [CHL, chloramphenicol], the “Fungicidal activity (words)” value with C. albicans (ATCC 24433) (setting [3]) is given as “fungicidal activity was not observed; also recorded: no effect”. Further, the “Antifungal / fungicidal activity in vitro” value in data set [2] was “no effect; also recorded: ineffective”.

For the compound `COc1c(N2CCNC(C)C2)c(F)cc2c(=O)c(C(=O)O)cn(C3CC3)c12` (stereo not shown) [GAT, gatifloxacin], the “Fungicidal activity (words)” value in the data set on C. albicans (ATCC 24433) (setting [3]) is listed as “fungicidal activity was not observed; also recorded: no effect”. Further, the “Antifungal / fungicidal activity in vitro” value in data set [2] is given as “no effect”.

For `COc1c(N2C[C@@H]3CCCN[C@@H]3C2)c(F)cc2c(=O)c(C(=O)O)cn(C3CC3)c12` [MOX, moxifloxacin], the “Fungicidal activity (words)” value in the data set with C. albicans (ATCC 24433) (setting [3]) was “no effect”. Moreover, the “Antifungal / fungicidal activity in vitro” value in data set [2] is listed as “no effect”.

In the case of `COc1cc(Cc2cnc(N)nc2N)cc(OC)c1OC` [TMP, trimethoprim], the “Fungicidal activity (words)” value is on record as “fungicidal activity was not observed” with C. albicans (ATCC 24433) (setting [4]) and “no effect” with C. albicans (ATCC 24433) (setting [5]). In data set [2], the “Antifungal / fungicidal activity in vitro” value was “no effect; also recorded: ineffective”.

Consider `CN[C@H](CC(C)C)C(=O)N[C@H]1C(=O)N[C@@H](CC(N)=O)C(=O)N[C@H]2C(=O)N[C@H]3C(=O)N[C@H](C(=O)N[C@H](C(=O)O)c4cc(O)cc(O)c4-c4cc3ccc4O)[C@H](O)c3ccc(c(Cl)c3)Oc3cc2cc(c3O[C@@H]2O[C@H](CO)[C@@H](O)[C@H](O)[C@H]2O[C@H]2C[C@](C)(N)[C@H](O)[C@H](C)O2)Oc2ccc(cc2Cl)[C@H]1O` [VAN, vancomycin], for which, in the data set on C. albicans (ATCC 24433) (setting [3]), the “Fungicidal activity (words)” value is listed as “fungicidal activity was not observed; also recorded: no effect”. Besides, in data set [2], the “Antifungal / fungicidal activity in vitro” value is reported as “no effect; also recorded: ineffective”.

Turning to polymyxin B sulfate [PMB], the “Reduction in viable colonies” value worked out at 2 log10 with C. albicans (ATCC 24433) (within 60 min) and 3 log10 in the data set on C. albicans (ATCC 24433) (within 120 min). Also, the “Fungicidal activity (words)” value in the data set with C. albicans (ATCC 24433) (setting [4]) was “fungicidal activity was not observed”; with C. albicans (ATCC 24433) (setting [5]), “comparable to the commercially prepared Polytrim®”. In addition, the “Antifungal / fungicidal activity in vitro” value in data set [2] is reported as “moderate antifungal activity”.
